For data set [1], the system named is MDA-MB-231 cells. In words: Anti-proliferation test (CCK8), singly and combined with TMZ. Type of data set: cell-based. Particulars: for IC50: 8 days; for PF50: PF50=[IC50 of the tested compound]/[IC50 at fixed TMZ concentration]. As for the experimental part: (§1) MDA-MB-436 and MDA-MB-231 cells were seeded in a 96-well plate at a density of 500 and 2000 cell per well, respectively, and cultured overnight. The medium was RPMI 1640 containing 10% (v/v) FBS and 1% (v/v) penicillin-streptomycin. They were treated for 8 days after the compound to be tested was added. Cell viability was measured by CCK8 kit. Specifically, 10 µL CCK8 reagent was added to each well and incubated in a 5% CO2 incubator at 37° C. for 3 hours. After shaking for 10 minutes, the light absorbance (OD value) was measured with a Flexstation III (Molecular Device) at 450 nm.
(§2) For the test of compound combinations (in combination with DNA damage drugs), the PF50 value was used to calculate the synergistic effect of the drug. PF50=[IC50 of the tested compound]/[IC50 of the compound at a fixed DNA damage drug concentration]. Temozolomide (TMZ) was used as DNA damage drug in this study.

Data set [2] deals with MDA-MB-436 cells. Described as above. Type of data set: cell-based. Particulars: for IC50: 8 days; for PF50: PF50=[IC50 of the tested compound]/[IC50 at fixed TMZ concentration]. As for the experimental part:
as §1, §2

Data set [3] in a line: Stability test for Crystal type A in different solvents. Type of data set: physicochemical. Particulars: for Results (crystalline state by XRPD): 3 days. The text has this:
After being stirred for 3 days, the samples were centrifuged and the solid in all samples were collected. XRPD was used to determine the crystalline state.

The nature of data set [4]: Solid stability test for Crystal type A under high temperature, high humidity and strong illumination. Type of data set: physicochemical. As to the method:
The sample placed at 60° C. and 92.5% relative humidity was sealed with aluminum foil at the vial mouth, and the aluminum foil was pricked to ensure that the sample was fully exposed to the ambient air; the sample placed under strong illumination (5Klux) was sealed with a screw cap. The samples placed under different conditions were sampled and tested on the 10th day. The test results were compared with the initial test results on the 0th day.

Setting [5] is: Homo sapiens, MDA-MB-231, 192 h, MDA-MB-231, combined with 1uM TMZ, average, read-out: IC50_Avg.
Where [6] appears, read: Homo sapiens, MDA-MB-231, 192 h, MDA-MB-231, combined with 1uM TMZ, run N=1, read-out: IC50_N = 1.
The mark [7] stands for this setting: Homo sapiens, MDA-MB-231, 192 h, MDA-MB-231, combined with 1uM TMZ, run N=2, read-out: IC50_N = 2.
[8] abbreviates: Homo sapiens, MDA-MB-231, 192 h, MDA-MB-231, used singly, average, read-out: IC50_Avg.
Where [9] appears, read: Homo sapiens, MDA-MB-231, 192 h, MDA-MB-231, used singly, run N=1, read-out: IC50_N = 1.
Setting [10] is: Homo sapiens, MDA-MB-231, 192 h, MDA-MB-231, used singly, run N=2, read-out: IC50_N = 2.
[11] abbreviates: MDA-MB-231, combined with 1uM TMZ.
Where [12] appears, read: Homo sapiens, MDA-MB-436, 192 h, MDA-MB-436, combined with 25uM TMZ, average, read-out: IC50_Avg.
Where [13] appears, read: Homo sapiens, MDA-MB-436, 192 h, MDA-MB-436, combined with 25uM TMZ, run N=1, read-out: IC50_N = 1.
[14] abbreviates: Homo sapiens, MDA-MB-436, 192 h, MDA-MB-436, combined with 25uM TMZ, run N=2, read-out: IC50_N= 2.
Where [15] appears, read: Homo sapiens, MDA-MB-436, 192 h, MDA-MB-436, used singly, average, read-out: IC50_Avg.
The mark [16] stands for this setting: Homo sapiens, MDA-MB-436, 192 h, MDA-MB-436, used singly, run N=1, read-out: IC50_N = 1.
[17] abbreviates: Homo sapiens, MDA-MB-436, 192 h, MDA-MB-436, used singly, run N=2, read-out: IC50_N= 2.
[18] abbreviates: MDA-MB-436, combined with 25uM TMZ.
Where [19] appears, read: Strong illumination (sealed), 5Klux, day 10.

Read-outs that look alike come from different tables or passages of the source.

Regarding `CC(C)N1CCC(C)(c2cnn3c2[nH]c2cc(F)cc(C(N)=O)c23)CC1` [Compound 1, 6-fluoro-3-(1-isopropyl-4-methylpiperidin-4-yl)-4H-benzo[4,5]imidazo[1,2-b]pyrazol-8-carboxamide], the IC50 in data set [1] (setting [5]) is 4.86 µM; in data set [1] (setting [6]), 3.96 µM; in data set [1] (setting [7]) it was 5.75 µM; in data set [1] (setting [8]) it was 5.83 µM; in data set [1] (setting [9]), 6.21 µM; in data set [1] (setting [10]), 5.44 µM. Moreover, the IC50 in data set [2] (setting [12]) worked out at 0.007 µM; in data set [2] (setting [13]), 0.009 µM; in data set [2] (setting [14]) it was 0.005 µM; in data set [2] (setting [15]), 0.071 µM; in data set [2] (setting [16]), 0.089 µM; in data set [2] (setting [17]), 0.053 µM. Further, the PF50 turned out to be 1.20 in data set [1] (setting [11]) and 9.84 in data set [2] (setting [18]). In addition, the “inhibitory effect on cell line” value in data set [2] (BRAC mutant MDA-MB-436 cell line) is listed as “strong inhibitory effect”. In addition, the synergistic effect entry in data set [2] (combined with TMZ) is on record as “good synergistic effect”.

Regarding `Cn1nnc2c(C(N)=O)ncn2c1=O` [TMZ, temozolomide], the IC50 turned out to be 4.17 µM in data set [1] (setting [8]); 4.61 µM in data set [1] (setting [9]); 3.72 µM in data set [1] (setting [10]); 3.42 µM in data set [1] (MDA-MB-231, used singly, average, read-out: IC50_Avg); 3.33 µM in data set [1] (MDA-MB-231, used singly, run N=1, read-out: IC50_N = 1); 3.52 µM in data set [1] (MDA-MB-231, used singly, run N=2, read-out: IC50_N = 2). Besides, the IC50 stood at 111 µM in data set [2] (setting [15]); 80.2 µM in data set [2] (setting [16]); 107 µM in data set [2] (MDA-MB-436, used singly, average, read-out: IC50_Avg); 152 µM in data set [2] (MDA-MB-436, used singly, run N=1, read-out: IC50_N = 1).

Regarding `C[C@]1(c2nc3c(C(N)=O)cccc3[nH]2)CCCN1` [ABT-888, Veliparib], the IC50 came out at 30.7 µM in data set [1] (setting [5]); 25.5 µM in data set [1] (setting [6]); 36 µM in data set [1] (setting [7]); 40.5 µM in data set [1] (setting [8]); 44 µM in data set [1] (setting [9]); 37 µM in data set [1] (setting [10]). The IC50 came to 0.018 µM in data set [2] (setting [12]); 0.026 µM in data set [2] (setting [13]); 0.01 µM in data set [2] (setting [14]); 0.305 µM in data set [2] (setting [15]); 0.444 µM in data set [2] (setting [16]); 0.167 µM in data set [2] (setting [17]). Moreover, the figures for the PF50 in data set [1] (setting [11]) and in data set [2] (setting [18]) were 1.32 and 17.14, respectively.

Turning to `CC(C)N1CCC(C)(c2cnn3c2[nH]c2cc(F)cc(C(N)=O)c23)CC1.O=C(O)/C=C\C(=O)O` [Crystal type A, 6-fluoro-3-(1-isopropyl-4-methylpiperidin-4-yl)-4H-benzo[4,5]imidazo[1,2-b]pyrazol-8-formamide.maleate monohydrate], the “Appearance (3 days)” value in data set [3] (Acetone, 25° C.) is “Suspension”; in data set [3] (Acetone:water = 1:2, 25° C.) it was “Suspension”; in data set [3] (Acetonitrile:water = 1:1, 25° C.), “Suspension”; in data set [3] (Ethanol, 25° C.), “Suspension”; in data set [3] (Ethanol:water = 3:1, 25° C.), “Suspension”; in data set [3] (Ethyl acetate, 25° C.) it was “Suspension”. The “Appearance (3 days)” value in data set [3] (Isopropanol, 25° C.) was “Suspension”; in data set [3] (Isopropanol:water = 1:1, 25° C.), “Suspension”; in data set [3] (Methanol, 25° C.) it was “Suspension”; in data set [3] (Methanol:water = 3:1, 25° C.), “Suspension”. The “Results (crystalline state by XRPD)” value in data set [3] (Acetone, stirred at 25° C.) is on record as “Crystal type A”; in data set [3] (Acetone:water = 1:2, stirred at 25° C.) it was “Crystal type A”; in data set [3] (Acetonitrile:water = 1:1, stirred at 25° C.), “Crystal type A”; in data set [3] (Ethanol, stirred at 25° C.), “Crystal type A”; in data set [3] (Ethanol:water = 3:1, stirred at 25° C.) it was “Crystal type A”; in data set [3] (Ethyl acetate, stirred at 25° C.) it was “Crystal type A”. For the same compound, the “Results (crystalline state by XRPD)” value in data set [3] (Isopropanol, stirred at 25° C.) is recorded as “Crystal type A”; in data set [3] (Isopropanol:water = 1:1, stirred at 25° C.), “Crystal type A”; in data set [3] (Methanol, stirred at 25° C.) it was “Crystal type A”; in data set [3] (Methanol:water = 3:1, stirred at 25° C.), “Crystal type A”. Besides, the Appearance result in data set [4] (60° C. (open), day 10) is “White powder”; in data set [4] (92.5% RH (open), day 10) it was “White powder”; in data set [4] (setting [19]), “White powder”; in data set [4] (initial, day 0), “White powder”. Moreover, the “Content (%)” value in data set [4] (60° C. (open), day 10) is 98.5%; in data set [4] (92.5% RH (open), day 10), 99.5%; in data set [4] (setting [19]) it was 99.4%; in data set [4] (initial, day 0) it was 98.9%. Also, the “Total impurities (%)” value in data set [4] (60° C. (open), day 10) is recorded as 0.11%; in data set [4] (92.5% RH (open), day 10) it was 0.10%; in data set [4] (setting [19]), 0.11%; in data set [4] (initial, day 0), 0.10%.

The values are drawn from patent US10941150B2, “Salt type and crystal type of 4h-pyrazolo [1, 5-alpha] benzimidazole compound and preparation method and intermediate thereof” (HUBEI BIO-PHARMACEUTICAL INDUSTRIAL TECHNOLOGICAL INSTITUTE …, priority 2015, dated 2021).
